Consider 4 compounds from patent US20230042929A1, “Methods of Screening to Determine Effective Dosing of Cancer Therapeutics” (Kiyatec, Inc., priority 2019, published 2023).

Read-outs that look alike come from different tables or passages of the source. Bounds are passed on as bounds.

The subject of data set [1] is T cells stimulated with matched melanoma tumor spheroids. The data set can be described thus: Tumor spheroid assay to assess T cell responses (flow cytometry). The format is cell-based, human. On the procedure:
Tumor spheroid assay to assess T cell responses. Expanded T cells were cultured in the absence of activation components (EV3D media) for 72 hours prior to tumor spheroid assay. […] After a 1 hour incubation, plates were centrifuged for 5 minutes at 500×g. Patient samples were then cultured for 24 hours, and wells were then harvested for flow cytometric analysis.
Flow cytometry. Cells were harvested from 384-well plates following tumor spheroid assays or dissociated from scaffolds and resuspended in 100 μl FACS buffer (2% FBS, 2 mM EDTA, 0.05% sodium azide in PBS). […] Samples were then analyzed using the CytoFLEX LX flow cytometer and software (Beckman Coulter, Brea, Calif.). Percent of parent was then graphed and evaluated for statistics using GraphPad Prism.

The conditions of data set [2]: cited from earlier work; for half-life: in vivo.
Data set [3] has as its system OVC45 and OVC33 ovarian cancer patient derived 3D spheroids. The data set can be described thus: 3D spheroid drug response assay (CellTiter-Glo 3D, imaging). The format is cell-based, human. On the procedure:
Live OC tissue was received within 24 hours of surgery and dissociated to single cells via mechanical and enzymatic digestion. Cells were then cryopreserved until ready for use. 3D spheroids were generated as previously described. Briefly, cells were seeded in KIYA-PREDICT™ media (KIYATEC, Inc., South Carolina, USA) in 384-well round bottom, ultra-low attachment plates (Corning Inc., New York, USA) and centrifuged at 500×g for five minutes then placed in a 37° C. incubator at 5% CO2.
Given the prevalence of drug resistance and altered drug penetration for 3D cultures, drug concentrations for single dose experiments were in the micromolar or microgram per milliliter range for testing. […] Viability was determined 48 hours later. For durvalumab (Selleckchem, Texas, USA) and olaparib combination studies, spheroids were treated with olaparib for 48 hours, followed by durvalumab for an additional 72 hours. […] T-cells were then added to the bulk cells and seeded for 3D spheroid culture. Viability was determined 48 hours later. Viability read outs were conducted using CellTiter-Glo® 3D Cell Viability Assay (Promega, Wisconsin, USA) and relative luminescence units (RLUs) were recorded using a TECAN infinite M1000pro (Mannedorf, Switzerland).
Statistical analysis was performed using GraphPad Prism software version 8.2.1. Results are expressed as the mean±standard deviation (SD). Unpaired t tests were used to determine significance between two groups. Unpaired One-way ANOVA with multiple comparisons was used to determine significance across three or more groups. Combenefit software generated concentration responses and Loewe synergy indices from calculated percent viability normalized to vehicle control.

A further data set relates to GEN26 tumor spheroids. The data set can be described thus: Tumor spheroid death assay (CellTiter-Glo 3D). It counts as cell-based, human. The settings on record: 24 hours. On the procedure: Tumor spheroid death assay. […] After a 1 hour incubation at 37 C 5% CO2, plates were centrifuged for 5 minutes at 500×g. Tumor spheroids were allowed to form overnight. After 24 or 72 hours, CellTiter-Glo® 3D Cell Viability Assay (Promega G9683) was used according to manufacturer's recommendations and relative luminescence units (RLUs) were recorded using a TEGAN infinite M1000pro (Mannedorf, Switzerland). RLUs were graphed using GraphPad Prism.

Data set [4] deals with melanoma microtumors co-cultured with stacked T cell compartment. Briefly: Microtumor viability assay (PrestoBlue growth rate). It counts as cell-based, human. The method, then: PrestoBlue viability assays. PrestoBlue™ Cell Viability Reagent (Invitrogen A13262) was diluted 1:10 in EV3D media. Each T cell scaffold or microtumor was placed in 250 μl of diluted PrestoBlue reagent in a 96-well plate and allowed to incubate for 2 hours at 37° C. 5% CO2. Scaffolds and microtumors were then placed in fresh media and duplicates of 100 μl per PrestoBlue sample was pipetted into a black walled 96-well plate and read on a TECAN infinite M1000pro (Mannedorf, Switzerland) at an excitation of 560 nm and an emission 590 nm with a gain of 60. Absorbance measurements from scaffolds with no cells were subtracted from each sample and relative fluorescent units (RFU) were graphed using GraphPad Prism.
Microtumor viability assay. T cells and tumor cells were seeded in EV3D media and Matrigel (Corning 356234) with collagen (Corning 354236) in scaffolds. […] Scaffolds were incubated for 1 hour at 37° C. and 5% CO2 then 200 μl of EV3D media was added to each scaffold. After an additional hour, T cell scaffolds were placed on top of tumor cell scaffolds (microtumors) or microtumors were cultured in the absence of a stacked T cell scaffold. Media was changed every one to two days. Supernatant from day seven was collected and stored at −80° C. for analyte analysis. Viability was determined for T cell scaffolds and microtumors after 24 hours (day one) and at day seven using PrestoBlue™ Cell Viability Reagent (Invitrogen A13262). PrestoBlue absorbance readings (RFUs) for day one were subtracted from day seven to determine microtumor growth rates.

The subject of data set [5] is GM-CSF, IFNγ, Granzyme B, MIP-1α, MIP-1β, TNFα secretion. The data set can be described thus: Detection of analyte secretion in microtumor model (Milliplex). It counts as cell-based, human. On the procedure:
Detection of Analyte Secretion. Individual beads (GM-CSF, IFNγ, Granzyme B, MIP-1α, MIP-1β, TNFα) were purchased from the Milliplex™ MAP Human CD8+ T cell Magnetic Bead Panel 96-well Plate Assay (EMO Millipore HCD8MAG-15K). Supernatant was collected at day seven of microtumor viability assays and stored at −80° C. Samples were processed according to manufacturer's recommendations and the assay plate was run on the BIORAD Luminex® BioPLEX200™ System (Hercules, Calif.). Analyte concentration was determined by interpolation of assay standards using GraphPad Prism.

For data set [6], the system named is CD3+ T cells infiltrating matched melanoma microtumors. The data set can be described thus: Detection of T cell infiltration in microtumor model. It counts as cell-based, human. On the procedure:
Detection of T cell infiltration. T cells were stained with the fluorescent stain PKH (Sigma PKH26GL-1KT) according to manufacturer's recommendations. On the same day, T cells and tumor cells were seeded in EV3D media and Matrigel (Corning 356234) in scaffolds. Scaffolds were incubated for 1 hour at 37° C. and 5% CO2 then 200 μl of EV3D media was added to each scaffold well. After an additional hour, T cell scaffolds were placed on top of tumor cell scaffolds (microtumors). Media was changed every one or two days. Viability was determined for T cell scaffolds and microtumors after one week using PrestoBlue™ Cell Viability Reagent (Invitrogen A13262). Microtumors were washed in PBS, then harvested using Liberase DH (Sigma LIBDH− RO) in serum-free media while rotating at 37° C. 5% CO2. Harvested cells were then analyzed for PKH (PE channel), and CD3 using flow cytometry. Unstained T cells were used to define PKH+ gates.

The test system of data set [7] is melanoma cell line with tumor infiltrating lymphocytes. The data set can be described thus: Image based assay of tumor and T-cell interactions in 3D spheroids. The settings on record: 1:3 E:T, up to 72 hours, drug alone. The method, then:
Referring to FIGS. 25A-H, a summary of an image-based assay for measuring tumor and T-cell interactions for I/O applications is shown. FIG. 25(A) illustrates representative images of a melanoma cell line (Green) and tumor infiltrating lymphocytes (Red) at a 1:3 Effector:Target cell ratio (E:T) cultured as 3D spheroids at 72 hours, Scale bar=200 μm. Groups were treated with immunomodulators (Activator=CD3/CD28 antibody, Durva=Durvalumab) and analyzed every 24 hours for 72 hours (FIGS. 25F-25H). Total red or green fluorescence was measured for T-cells (FIGS. 25B and 25C) and tumor cells (FIG. 25F) using an algorithm developed in Celleste Image Analysis software. Imaging based metrics were compared to conventional methods for assessing cell viability, CellTiter-Glo® (FIGS. 25D and 25G) and flow cytometry (FIGS. 25E and 25H). An increase in T-cell viability in all treatment groups was observed compared to no treatment when cultured with tumor cells (D). Total green fluorescence signal (F) was an acceptable indicator of T-cell induced cytotoxicity when compared to CellTiter-Glo® (FIG. 25G). The use of flow cytometry as a metric for T-cell induced cytotoxicity appears to not be as sensitive at earlier timepoints (24 hrs) as at later timepoints (72 hours). […] Two-Way ANOVA, error bars reflect SD. *p<0.05, **p<0.01, ***p<0.001.

For data set [8], the system named is recurrent platinum-resistant OC. Particulars: patients with recurrent platinum-resistant OC; cited from earlier work.

With pembrolizumab, in [1] (GEN25, data not shown), the “CD3+/PD-1−/CD69+ population (T cell activation)” value was “did not display an increase”. In addition, the “CD3+/PD-1−/CD69+ levels (T cell activation)” value in [1] (three patients (GEN19, GEN21, GEN26), tumor spheroids + 100 μg/ml pembrolizumab vs T cells with or without spheroids) was “significant increase”. Moreover, the half-life result in [2] is recorded as “approximately 27 days”. The “predicted maximum serum concentration” value in [2] (intravenous 10 mg/kg once every two weeks, advanced solid tumor cancer patients) was “approximately 200 μg/mL”. Moreover, the spheroid viability entry in [3] (OVC33, T-cells incubated with 300 μg/mL pembrolizumab before 3D incorporation, 48 hours) was “significant reduction in spheroid viability”; in [3] (OVC45 and OVC33, 100 μg/mL pembrolizumab alone, 48 hours), “decrease in spheroid viability with pembrolizumab treatment alone was not detected for both samples”. Further, the tumor spheroid viability entry was “slight decrease in viability” in the data set with GEN26 tumor spheroids (GEN26 tumor spheroids alone, 100 μg/ml, vs no treatment) and “greatest reduction in tumor spheroid viability” in the data set on GEN26 tumor spheroids (GEN26 tumor spheroids co-cultured with T cells, ratio 1:5, 100 μg/ml). The microtumor growth rate entry in [4] (GEN19 and GEN26, 100 μg/ml, day 1 to day 7, vs untreated) is reported as “reduced microtumor growth rates compared to untreated”; in data set [4] (GEN20 or GEN21, 100 μg/ml, day 1 to day 7, vs no treatment) it was “did not detect a difference in microtumor growth rates”. The overall microtumor viability result in [4] (GEN26, 100 μg/ml, vs untreated microtumors) was “reduction in overall microtumor viability”. Further, the “PrestoBlue RFU readings” value in data set [4] (day one to day seven, GEN19, GEN26, GEN20, GEN21) was “altered the RFU readings over the 7 day period for GEN19 and GEN26 more significantly than GEN20 and GEN21”. Further, the “granzyme B secretion” value in data set [5] (GEN19, day 7, 100 μg/ml) is listed as “greatest increase”. In addition, the analyte secretion result in data set [5] (GEN19 and GEN26, day 7, 100 μg/ml, vs no treatment) was “increase in nearly all analytes tested”; in data set [5] (GEN20, day 7, 100 μg/ml), “reduction of all tested analytes”; in data set [5] (GEN21, day 7, 100 μg/ml), “increase in GM-CSF and moderate or no change for other tested analytes”. The “infiltration of CD3+ T cells” value in [6] (GEN19 and GEN20, with vs without treatment) is “decrease was observed”; in data set [6] (GEN21 and GEN26, with vs without treatment) it was “increase in infiltration of CD3+ T cells”.
Consider `O=C(c1cc(Cc2n[nH]c(=O)c3ccccc23)ccc1F)N1CCN(C(=O)C2CC2)CC1` [olaparib], for which the spheroid appearance entry in [3] (OVC33, 48 hours, images) is recorded as “less dense with less cell contact”. The “spheroid viability, relative sensitivity of samples” value is listed as “OVC33 was more sensitive to olaparib alone compared to OVC45” in [3] (olaparib alone, 50 μM (OVC33) or 100 μM (OVC45), 48 hours) and “OVC33 remained more sensitive to single agent olaparib than OVC45” in [3] (single agent olaparib dose-response, sequential dosing study).
For the compound durvalumab, the half-life result in data set [2] (human) is listed as “high”. Besides, the “predicted achievable serum concentration levels” value in [2] (twice weekly intravenous dosing regimen) is on record as “greater than 10 μg/mL”. In addition, the spheroid viability entry in data set [3] (durvalumab alone, dose-response, OVC45 and OVC33) is given as “did not result in a dose-dependent reduction in spheroid viability”. The T-cell induced cytotoxicity entry in data set [7] was “did not cause significant T-cell induced cytotoxicity”.
Turning to `NC(=O)c1cccc2cn(-c3ccc([C@@H]4CCCNC4)cc3)nc12` [niraparib], the “complete or partial responses, share of patients” value in data set [8] was less than 5%.
